Patent US20180084779A1, “PLANT DISEASE CONTROL AGENT AND USE THEREOF” (NIHON NOHYAKU CO., LTD., priority 2015, published 2018)

Tests used:
[1] = test system: Septoria tritici, KUK-1-21 Strain; assay: Test for wheat leaf blotch, fluoroimide and/or SDHI agent sprayed on wheat pots, lesion area index 21 days after inoculation; assay type: in vivo; details: for Control effect Combination with fluoroimide / Control effect SDHI alone: 21 days; for Control effect SDHI alone: fluoroimide 0 ppm
Description: (§1) Control effect (%)=[(Disease index of no treatment area−Disease index of treatment area)/Disease index of no treatment area]×100 [Formula 1]
(§2) The expected effect (expected value E) by using an active ingredient in combination with each of other active ingredients in the above tests was determined by the following Colby formula (see COLBY, S. R., Weeds 15: 20-22 (1967)).
(§3) E(Expected effect)=(X+Y)−(X×Y/100) [Formula 2]
(§4) Test for Wheat Leaf Blotch (Septoria tritici, KUK-1-21 Strain):
(§5) Agrochemical liquids containing a predetermined concentration of fluoroimide and/or a predetermined concentration of each SDHI agent were applied to wheat in a predetermined amount with a spray gun. After air drying, a suspension of fungus spore of Septoria tritici adjusted to 1.0×10^7 spores/ml was inoculated by spraying. After that, the wheat pots were kept in a growth chamber under a light condition of at 15° C. 100% RH to encourage the development of the disease. Twenty-one days after the inoculation, the lesion area index (0-10) was set and the controlling effects and expected values are examined in the same manner as Example 1.

[2] = test system: Septoria tritici, KUK-1-21 Strain; assay: Test for wheat leaf blotch, fluoroimide and/or DMI agent sprayed on wheat pots, lesion area index 17 days after inoculation; assay type: in vivo; details: for Controlling effect Combination with fluoroimide / Controlling effect DMI alone: 17 days; for Controlling effect DMI alone: fluoroimide 0 ppm
Description: as §4
as §5, with “DMI” for “SDHI”, “Seventeen” for “Twenty-one”, “determined for” for “set and”, “evaluation of” for “controlling effects and expected values are examined in”, “control effect.” for “same manner as Example 1.”
as §1, §2, §3
X=controlling effect of fungicide A alone
Y=controlling effect of fungicide B alone

[3] = SDHI agent 1 ppm + fluoroimide 50 ppm
[4] = SDHI agent 1 ppm + fluoroimide 100 ppm
[5] = SDHI agent 3 ppm + fluoroimide 50 ppm
[6] = SDHI agent 3 ppm + fluoroimide 100 ppm
[7] = SDHI agent 10 ppm + fluoroimide 50 ppm
[8] = SDHI agent 10 ppm + fluoroimide 100 ppm
[9] = DMI agent 1 ppm + fluoroimide 50 ppm
[10] = DMI agent 1 ppm + fluoroimide 100 ppm
[11] = DMI agent 3 ppm + fluoroimide 50 ppm
[12] = DMI agent 3 ppm + fluoroimide 100 ppm
[13] = DMI agent 10 ppm + fluoroimide 50 ppm
[14] = DMI agent 10 ppm + fluoroimide 100 ppm

Row | Structure (SMILES) | Control effect Expected value (Colby) [1, 3] | Control effect Combination with fluoroimide [1, 3] | Control effect Expected value (Colby) [1, 4] | Control effect Combination with fluoroimide [1, 4] | Control effect SDHI alone ([1]; SDHI agent 1 ppm) | Controlling effect Expected value (Colby) [2, 9] | Controlling effect Combination with fluoroimide [2, 9] | Controlling effect Expected value (Colby) [2, 10] | Controlling effect Combination with fluoroimide [2, 10] | Controlling effect DMI alone ([2]; DMI agent 1 ppm) | Controlling effect Expected value (Colby) [2, 11] | Controlling effect Combination with fluoroimide [2, 11] | Controlling effect Expected value (Colby) [2, 12] | Controlling effect Combination with fluoroimide [2, 12] | Controlling effect DMI alone ([2]; DMI agent 3 ppm) | Controlling effect Expected value (Colby) [2, 13] | Controlling effect Combination with fluoroimide [2, 13] | Controlling effect Expected value (Colby) [2, 14] | Controlling effect Combination with fluoroimide [2, 14] | Controlling effect DMI alone ([2]; DMI agent 10 ppm) | further results
1 | Cn1cc(C(=O)Nc2ccc(F)cc2-c2ccc(Cl)c(Cl)c2)c(C(F)F)n1 [bixafen] | 76% | 95% | 81% | 85% | 75% |  |  |  |  |  |  |  |  |  |  |  |  |  |  |  | Control effect Expected value (Colby) [1, 5]: 86%; Control effect Combination with fluoroimide [1, 5]: 100%; Control effect Expected value (Colby) [1, 6]: 89%; Control effect Combination with fluoroimide [1, 6]: 90%; Control effect SDHI alone ([1]; SDHI agent 3 ppm): 85%; Control effect Expected value (Colby) [1, 7]: 100%; Control effect Combination with fluoroimide [1, 7]: 100%; Control effect Expected value (Colby) [1, 8]: 100%; Control effect Combination with fluoroimide [1, 8]: 100%; Control effect SDHI alone ([1]; SDHI agent 10 ppm): 100%
2 | CC1COC(Cn2cncn2)(c2ccc(Oc3ccc(Cl)cc3)cc2Cl)O1 (stereo not drawn) [difenoconazole] |  |  |  |  |  | 25% | 52% | 50% | 94% | 0% | 71% | 89% | 81% | 89% | 61% | 71% | 89% | 81% | 100% | 61% | 
3 | CC(C)C1C2CCC1c1c(NC(=O)c3cn(C)nc3C(F)F)cccc12 (stereo not drawn) [isopyrazam] | 19% | 60% | 36% | 20% | 15% |  |  |  |  |  |  |  |  |  |  |  |  |  |  |  | Control effect Expected value (Colby) [1, 5]: 76%; Control effect Combination with fluoroimide [1, 5]: 85%; Control effect Expected value (Colby) [1, 6]: 81%; Control effect Combination with fluoroimide [1, 6]: 85%; Control effect SDHI alone ([1]; SDHI agent 3 ppm): 75%; Control effect Expected value (Colby) [1, 7]: 100%; Control effect Combination with fluoroimide [1, 7]: 100%; Control effect Expected value (Colby) [1, 8]: 100%; Control effect Combination with fluoroimide [1, 8]: 100%; Control effect SDHI alone ([1]; SDHI agent 10 ppm): 100%
4 | CCCC1COC(Cn2cncn2)(c2ccc(Cl)cc2Cl)O1 (stereo not drawn) [propiconazole] |  |  |  |  |  | 25% | 62% | 50% | 72% | 0% | 46% | 89% | 64% | 94% | 28% | 33% | 89% | 56% | 100% | 11% | 
5 | CC(C)(C)C(O)(CCc1ccc(Cl)cc1)Cn1cncn1 (stereo not drawn) [tebuconazole] |  |  |  |  |  | 30% | 62% | 53% | 67% | 6% | 58% | 68% | 72% | 94% | 44% | 71% | 89% | 81% | 94% | 61% | 
6 | Fc1ccc([C@]2(Cn3cncn3)O[C@H]2c2ccccc2Cl)cc1 (racemic) [epoxiconazole] |  |  |  |  |  | 25% | 19% | 50% | 72% | 0% | 63% | 62% | 75% | 83% | 50% | 71% | 84% | 81% | 83% | 61% | 
7 | OC(Cc1ccccc1Cl)(Cn1nc[nH]c1=S)C1(Cl)CC1 (stereo not drawn) [prothioconazole] |  |  |  |  |  | 25% | 3% | 50% | 61% | 0% | 25% | 30% | 50% | 72% | 0% | 25% | 73% | 50% | 67% | 0% | 
8 | CC1(C)CCC(Cc2ccc(Cl)cc2)C1(O)Cn1cncn1 (stereo not drawn) [metconazole] |  |  |  |  |  | 30% | 68% | 53% | 78% | 6% | 46% | 84% | 64% | 89% | 28% | 92% | 95% | 95% | 89% | 89% | 
9 | O=C(Nc1ccccc1-c1ccc(Cl)cc1)c1cccnc1Cl [boscalid] | 10% | 15% | 29% | 0% | 5% |  |  |  |  |  |  |  |  |  |  |  |  |  |  |  | Control effect Expected value (Colby) [1, 5]: 19%; Control effect Combination with fluoroimide [1, 5]: 65%; Control effect Expected value (Colby) [1, 6]: 36%; Control effect Combination with fluoroimide [1, 6]: 80%; Control effect SDHI alone ([1]; SDHI agent 3 ppm): 15%; Control effect Expected value (Colby) [1, 7]: 62%; Control effect Combination with fluoroimide [1, 7]: 100%; Control effect Expected value (Colby) [1, 8]: 70%; Control effect Combination with fluoroimide [1, 8]: 95%; Control effect SDHI alone ([1]; SDHI agent 10 ppm): 60%
10 | CCCN(CCOc1c(Cl)cc(Cl)cc1Cl)C(=O)n1ccnc1 [prochloraz] |  |  |  |  |  | 25% | 57% | 50% | 72% | 0% | 33% | 41% | 56% | 72% | 11% | 30% | 62% | 53% | 67% | 6% | 
11 | Cn1cc(C(=O)Nc2ccccc2-c2cc(F)c(F)c(F)c2)c(C(F)F)n1 [fluxapyroxad] | 5% | 15% | 25% | 50% | 0% |  |  |  |  |  |  |  |  |  |  |  |  |  |  |  | Control effect Expected value (Colby) [1, 5]: 95%; Control effect Combination with fluoroimide [1, 5]: 90%; Control effect Expected value (Colby) [1, 6]: 96%; Control effect Combination with fluoroimide [1, 6]: 100%; Control effect SDHI alone ([1]; SDHI agent 3 ppm): 95%; Control effect Expected value (Colby) [1, 7]: 100%; Control effect Combination with fluoroimide [1, 7]: 100%; Control effect Expected value (Colby) [1, 8]: 100%; Control effect Combination with fluoroimide [1, 8]: 100%; Control effect SDHI alone ([1]; SDHI agent 10 ppm): 100%
